From ChEMBL document CHEMBL1127074, “Novel hypotensive agents from Verbesina caracasana. 2. Synthesis and pharmacology of caracasanamide” (1993)
Several values for one entry are separate records, joined by “and”; a condition that tells them apart may be missing. Equal values may be shown once.

Columns and labels:
[1] = tested on: Rattus norvegicus; test: Tested for the change in systolic blood pressure administered at 3200 ug/kg intravenously in anesthetized rats in presence of phentolamine (2 mg/kg); type: functional, Artery
[2] = tested on: Rattus norvegicus; test: Change in heart rate administered at 1600 ug/kg iv in anesthetized rats in presence of hexamethonium (5 mg/kg) (p<0.05); type: functional
[3] = tested on: Rattus norvegicus; test: Tested for the change in systolic blood pressure administered at 1600 ug/kg intravenously in anesthetized rats in presence of propranolol (3 mg/kg); type: functional, Artery
[4] = tested on: Rattus norvegicus; test: Change in respiratory frequency administered at 1600 ug/kg iv in anesthetized rats; type: functional
[5] = tested on: Rattus norvegicus; test: Change in respiratory frequency administered at 200 ug/kg iv in anesthetized rats; type: functional
[6] = tested on: Rattus norvegicus; test: Tested for the change in systolic blood pressure administered at 200 ug/kg intravenously in anesthetized rats; type: functional, Artery
[7] = tested on: Rattus norvegicus; test: Change in heart rate administered at 3200 ug/kg iv in anesthetized rats in presence of propranolol (3 mg/kg) (p<0.05); type: functional
[8] = tested on: Rattus norvegicus; test: Tested for the change in systolic blood pressure administered at 1600 ug/kg intravenously in anesthetized rats in presence of hexamethonium (5 mg/kg) (p<0.05); type: functional, Artery
[9] = tested on: Rattus norvegicus; test: Tested for the change in systolic blood pressure administered at 400 ug/kg intravenously in anesthetized rats; type: functional, Artery
[10] = tested on: Rattus norvegicus; test: Change in respiratory frequency administered at 6400 ug/kg iv in anesthetized rats; type: functional
[11] = tested on: Rattus norvegicus; test: Tested for the change in systolic blood pressure administered at 800 ug/kg intravenously in anesthetized rats in presence of propranolol (3 mg/kg); type: functional, Artery
[12] = tested on: Rattus norvegicus; test: Maximum rate of rise of the left ventricular isovolumetric pressure administered at 3200 ug/kg iv in anesthetized rats in presence of […] (3 mg/kg) (p<0.05); type: functional, Heart left ventricle
[13] = tested on: Rattus norvegicus; test: Tested for the change in diastolic blood pressure administered at 200 ug/kg intravenously in anesthetized rats; type: functional, Artery
[14] = tested on: Rattus norvegicus; test: Change in respiratory frequency administered at 400 ug/kg iv in anesthetized rats; type: functional
[15] = tested on: Rattus norvegicus; test: Tested for the change in systolic blood pressure administered at 100 ug/kg intravenously in anesthetized rats in presence of spinalization under vagotomy; type: functional, Artery
[16] = tested on: Rattus norvegicus; test: Tested for the change in systolic blood pressure administered at 6400 ug/kg intravenously in anesthetized rats in presence of propranolol (3 mg/kg); type: functional, Artery
[17] = tested on: Rattus norvegicus; test: Change in heart rate administered at 6400 ug/kg iv in anesthetized rats in presence of propranolol (3 mg/kg) (p<0.05); type: functional
[18] = tested on: Rattus norvegicus; test: Tested for the change in diastolic blood pressure administered at 400 ug/kg intravenously in anesthetized rats; type: functional, Artery
[19] = tested on: Rattus norvegicus; test: Change in heart rate administered at 3200 ug/kg iv in anesthetized rats in presence of phentolamine (2 mg/kg); type: functional
[20] = tested on: Rattus norvegicus; test: Change in heart rate administered at 800 ug/kg iv in anesthetized rats in presence of phentolamine (2 mg/kg); type: functional
[21] = tested on: Rattus norvegicus; test: Tested for the change in diastolic blood pressure administered at 100 ug/kg intravenously in anesthetized rats; type: functional, Artery
[22] = tested on: Rattus norvegicus; test: Maximum rate of rise of the left ventricular isovolumetric pressure administered at 200 ug/kg iv in anesthetized rats in presence of spinalization under vagotomy; type: functional, Heart left ventricle
[23] = tested on: Rattus norvegicus; test: Tested for the change in systolic blood pressure administered at 100 ug/kg iv in anesthetized rats in presence of spinalization under vagotomy; type: functional, Artery
[24] = tested on: Rattus norvegicus; test: Tested for the change in systolic blood pressure administered at 800 ug/kg intravenously in anesthetized rats in presence of phentolamine (2 mg/kg); type: functional, Artery
[25] = tested on: Rattus norvegicus; test: Tested for the change in systolic blood pressure administered at 3200 ug/kg intravenously in anesthetized rats; type: functional, Artery
[26] = tested on: Rattus norvegicus; test: Maximum rate of rise of the left ventricular isovolumetric pressure (dP/dt) administered at 1600 ug/kg iv in anesthetized rats; type: functional, Heart left ventricle
[27] = tested on: Rattus norvegicus; test: Tested for the change in systolic blood pressure administered at 800 ug/kg intravenously in anesthetized rats in presence of hexamethonium (5 mg/kg) (p<0.05); type: functional, Artery
[28] = tested on: Rattus norvegicus; test: Change in heart rate administered at 6400 ug/kg iv in anesthetized rats in presence of hexamethonium (5 mg/kg) (p<0.05); type: functional
[29] = tested on: Rattus norvegicus; test: Maximum rate of rise of the left ventricular isovolumetric pressure (dP/dt) administered at 800 ug/kg iv in anesthetized rats; type: functional, Heart left ventricle
[30] = tested on: Rattus norvegicus; test: Maximum rate of rise of the left ventricular isovolumetric pressure administered at 3200 ug/kg iv in anesthetized rats in presence of spinalization under vagotomy (p<0.05); type: functional, Heart left ventricle
[31] = tested on: Rattus norvegicus; test: Tested for the change in diastolic blood pressure administered at 3200 ug/kg iv in anesthetized rats in presence of hexamethonium (5 mg/kg) (p<0.05); type: functional, Artery
[32] = tested on: Rattus norvegicus; test: Tested for the change in systolic blood pressure administered at 1600 ug/kg intravenously in anesthetized rats; type: functional, Artery
[33] = tested on: Rattus norvegicus; test: Tested for the change in diastolic blood pressure administered at 50 ug/kg intravenously in anesthetized rats; type: functional, Artery
[34] = tested on: Rattus norvegicus; test: Maximum rate of rise of the left ventricular isovolumetric pressure (dP/dt) administered at 3200 ug/kg iv in anesthetized rats; type: functional, Heart left ventricle
[35] = tested on: Rattus norvegicus; test: Maximum rate of rise of the left ventricular isovolumetric pressure administered at 6400 ug/kg iv in anesthetized rats in presence of hexamethonium (5 mg/kg) (p<0.05); type: functional, Heart left ventricle
[36] = tested on: Rattus norvegicus; test: Maximum rate of rise of the left ventricular isovolumetric pressure administered at 800 ug/kg iv in anesthetized rats in presence of […] (3 mg/kg) (p<0.05); type: functional, Heart left ventricle
[37] = tested on: Rattus norvegicus; test: Maximum rate of rise of the left ventricular isovolumetric pressure (dP/dt) administered at 100 ug/kg iv in anesthetized rats; type: functional, Heart left ventricle
[38] = tested on: Rattus norvegicus; test: Tested for the change in diastolic blood pressure administered at 800 ug/kg iv in anesthetized rats in presence of phentolamine (2 mg/kg); type: functional, Artery
[39] = tested on: Rattus norvegicus; test: Change in respiratory frequency administered at 50 ug/kg iv in anesthetized rats; type: functional
[40] = tested on: Rattus norvegicus; test: Tested for the change in systolic blood pressure administered at 100 ug/kg intravenously in anesthetized rats; type: functional, Artery
[41] = tested on: Rattus norvegicus; test: Tested for the change in diastolic blood pressure administered at 800 ug/kg intravenously in anesthetized rats; type: functional, Artery
[42] = tested on: Rattus norvegicus; test: Maximum rate of rise of the left ventricular isovolumetric pressure (dP/dt) administered at 50 ug/kg iv in anesthetized rats; type: functional, Heart left ventricle
[43] = tested on: Rattus norvegicus; test: Change in respiratory frequency administered at 3200 ug/kg iv in anesthetized rats; type: functional
[44] = tested on: Rattus norvegicus; test: Tested for the change in diastolic blood pressure administered at 1600 ug/kg iv in anesthetized rats in presence of hexamethonium (5 mg/kg) (p<0.05); type: functional, Artery
[45] = tested on: Rattus norvegicus; test: Tested for the change in diastolic blood pressure administered at 3200 ug/kg iv in anesthetized rats in presence of phentolamine (2 mg/kg); type: functional, Artery

COc1ccc(/C=C/C(=O)NCCCC/N=C(\N)NCC=C(C)C)cc1OC
Blood pressure [1]: -37 mmHg | Heart rate [2]: 10 beats min-1 | Blood pressure [3]: -25 mmHg | Frequency [4]: 23 beats min-1 and 21% | Frequency [5]: 12 beats min-1 and 12% | Blood pressure [6]: -11 mmHg and -14% | Heart rate [7]: 9 beats min-1 | Blood pressure [8]: -8 mmHg | Blood pressure [9]: -15 mmHg and -18% | Frequency [10]: -87 beats min-1 and -80% | Blood pressure [11]: -18 mmHg | dp/dt [12]: 760 mmHg s-1 | Blood pressure [13]: -10 mmHg and -16% | Frequency [14]: 16 beats min-1 and 16% | Blood pressure [15]: 0 mmHg | Blood pressure [16]: -35 mmHg | Heart rate [17]: 11 beats min-1 | Blood pressure [18]: -14 mmHg and -23% | Heart rate [19]: 24 beats min-1 | Heart rate [20]: 17 beats min-1 | Blood pressure [21]: -6 mmHg and -9% | dp/dt [22]: 0 mmHg s-1 | Blood pressure [23]: 0 mmHg | Blood pressure [24]: -22 mmHg | Blood pressure [25]: -25 mmHg and -29% | BP [26]: 57% | dp/dt [26]: 2996 mmHg s-1 | Blood pressure [27]: -5 mmHg | Heart rate [28]: 12 beats min-1 | BP [29]: 41% | dp/dt [29]: 2140 mmHg s-1 | dp/dt [30]: 680 mmHg s-1 | Blood pressure [31]: -17 mmHg | Blood pressure [32]: -21 mmHg and -26% | Blood pressure [33]: -5 mmHg and -8% | BP [34]: 55% | dp/dt [34]: 2984 mmHg s-1 | dp/dt [35]: 1447 mmHg s-1 | dp/dt [36]: 415 mmHg s-1 | BP [37]: 3% | dp/dt [37]: 141 mmHg s-1 | Blood pressure [38]: -19 mmHg | Frequency [39]: 6 beats min-1 and 6% | Blood pressure [40]: -6 mmHg and -8% | Blood pressure [41]: -15 mmHg and -23% | BP [42]: 1% | dp/dt [42]: 52 mmHg s-1 | Frequency [43]: -41 beats min-1 and -39% | Blood pressure [44]: -9 mmHg | Blood pressure [45]: -39 mmHg
